A value given as a limit tells only on which side of the number the result lay.

From patent US20240025906A1 (NEURON23, INC., priority 2022, published 2024) come the findings set out here.

Assay [1] deals with JAK1/TYK2 pSTAT5 (Tyr694/699) in THP-1 cell line. Description: IFNa-stimulated JAK1/TYK2 pSTAT5 (Tyr694/699) inhibition cellular assay, AlphaLISA. The class given is cell-based. The following applies: Homo sapiens; THP-1 cells, IFNa-stimulated, AlphaLISA (Assay B); read-out: Cellular_THP1_IFNa-pSTATS_TYK2. The procedure, abridged: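 An eight-point 6-fold titration of compound (0.04–10000 nM final) is given to THP-1 cells for 1 h before 30 min of IFNa exposure. Phospho-STAT5 is read by AlphaLISA at 615 nm. IC50 values are derived by logistic regression with bottom set to 0 and Hill slope set to −1.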
Background: Alpha assays give light when donor and acceptor beads are brought close together.

In another assay the target is T1, TYK2 JH2 (Homo sapiens, UniProt P29597).
T1 construct: purchased DiscoverX (KINOMEscan KdELECT service); host or cells: E. coli BL21-derived (T7 phage display) or HEK-293
T1 sequence (P29597 589-875 limits assumed): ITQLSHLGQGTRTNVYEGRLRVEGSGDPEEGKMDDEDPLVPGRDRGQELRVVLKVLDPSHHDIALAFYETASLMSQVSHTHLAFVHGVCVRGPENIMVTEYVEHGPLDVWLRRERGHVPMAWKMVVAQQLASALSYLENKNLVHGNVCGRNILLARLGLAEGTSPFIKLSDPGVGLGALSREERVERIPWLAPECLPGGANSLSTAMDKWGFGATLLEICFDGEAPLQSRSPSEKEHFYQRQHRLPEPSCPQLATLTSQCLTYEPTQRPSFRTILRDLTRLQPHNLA
Description: TYK2 JH2 binding assay (KINOMEscan KdELECT competitive binding). The following applies: TYK2 JH2 domain, KINOMEscan KdELECT (Assay A); read-out: Biochemical TYK2_DiscoverX_JH2_BND_Kd. The procedure, abridged: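 The assay measures displacement of DNA- or phage-tagged TYK2 pseudokinase domain from an affinity resin; compound binding lowers the amount captured, read by qPCR. Incubation lasts 1 h at room temperature.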

For `[2H]C([2H])([2H])Nc1ncc(C#Cc2ccc(OC)cn2)c2cc(NC(=O)[C@H]3C[C@H]3C)ncc12` [Example 779, (1S,2R)—N-(5-((5-methoxypyridin-2-yl)ethynyl)-8-((methyl-d3)amino)-2,7-naphthyridin-3-yl)-2-methylcyclopropane-1-carboxamide], the IC50 in assay [1] is no more than 0.5 µM. The Kd on TYK2 JH2 is no more than 0.1 µM.
For `CCc1nc(NC)c2cnc(NC(=O)C3CC3)cc2c1C#Cc1ccc(OC)cc1` [Example 780, N-(6-ethyl-5-((4-methoxyphenyl)ethynyl)-8-(methylamino)-2,7-naphthyridin-3-yl)cyclopropanecarboxamide], the IC50 in assay [1] was greater than 0.5 µM. Also, the Kd at TYK2 JH2 is no more than 0.1 µM.
The corresponding values for `CNc1nc(C)c(C#Cc2ccc(OC)cc2)c2cc(NC(=O)C3CC3)ncc12` [Example 781, N-(5-((4-methoxyphenyl)ethynyl)-6-methyl-8-(methylamino)-2,7-naphthyridin-3-yl)cyclopropanecarboxamide] are greater than 0.5 µM and no more than 0.1 µM.
As for `CNc1ncc(/C=C/c2ccc(OCCOC)cc2)c2cc(NC(=O)C3CC3)ncc12` [Example 782, (E)-N-(5-(4-(2-methoxyethoxy)styryl)-8-(methylamino)-2,7-naphthyridin-3-yl)cyclopropanecarboxamide], the IC50 in assay [1] is no more than 0.5 µM. In addition, the Kd on TYK2 JH2 is no more than 0.1 µM.
In the case of `CNc1ncc(/C=C/c2ccc(CC#N)cc2)c2cc(NC(=O)C3CC3)ncc12` [Example 783, (E)-N-(5-(4-(cyanomethyl)styryl)-8-(methylamino)-2,7-naphthyridin-3-yl)cyclopropanecarboxamide], the IC50 in assay [1] was no more than 0.5 µM. Besides, on TYK2 JH2, the Kd was no more than 0.1 µM.
The corresponding values for `CNc1ncc(/C=C/c2ccc(OCC(C)(C)O)cc2)c2cc(NC(=O)C3CC3)ncc12` [Example 784, (E)-N-(5-(4-(2-hydroxy-2-methylpropoxy)styryl)-8-(methylamino)-2,7-naphthyridin-3-yl)cyclopropanecarboxamide] are no more than 0.5 µM and no more than 0.1 µM.
`C=C(c1ccc(OCC(C)(C)O)cc1)c1cnc(NC)c2cnc(NC(=O)C3CC3)cc12` [Example 785, N-(5-(1-(4-(2-hydroxy-2-methylpropoxy)phenyl)vinyl)-8-(methylamino)-2,7-naphthyridin-3-yl)cyclopropanecarboxamide]: the IC50 in assay [1] was greater than 0.5 µM. The Kd at TYK2 JH2 was no more than 0.1 µM.
The corresponding values for `CNc1ncc(/C=C/c2ccc(N3C[C@@H](C)O[C@@H](C)C3)cc2)c2cc(NC(=O)C3CC3)ncc12` [Example 786, N-(5-((E)-4-((2R,6S)-2,6-dimethylmorpholino)styryl)-8-(methylamino)-2,7-naphthyridin-3-yl)cyclopropanecarboxamide] are no more than 0.5 µM and no more than 0.1 µM.
The corresponding values for `CNc1ncc(/C=C/c2ccc(N3CCO[C@@H](C)C3)cc2)c2cc(NC(=O)C3CC3)ncc12` [Example 787, (S,E)-N-(8-(methylamino)-5-(4-(2-methylmorpholino)styryl)-2,7-naphthyridin-3-yl)cyclopropanecarboxamide] are no more than 0.5 µM and no more than 0.1 µM.
The corresponding values for `C=C(c1ccc(N2CCO[C@@H](C)C2)cc1)c1cnc(NC)c2cnc(NC(=O)C3CC3)cc12` [Example 788, (S)—N-(8-(methylamino)-5-(1-(4-(2-methylmorpholino)phenyl)vinyl)-2,7-naphthyridin-3-yl)cyclopropanecarboxamide] are greater than 0.5 µM and 0.1 to 1 µM.
With `CNc1ncc(/C=C/c2ccc(N3CCOCC3)cc2)c2cc(NC(=O)C3CC3)ncc12` [Example 792, (E)-N-(8-(methylamino)-5-(4-morpholinostyryl)-2,7-naphthyridin-3-yl)cyclopropanecarboxamide], the IC50 in assay [1] is no more than 0.5 µM. For the same compound, the Kd on TYK2 JH2 is no more than 0.1 µM.
Take `C=C(c1ccc(N2CCOCC2)cc1)c1cnc(NC)c2cnc(NC(=O)C3CC3)cc12` [Example 793, N-(8-(methylamino)-5-(1-(4-morpholinophenyl)vinyl)-2,7-naphthyridin-3-yl)cyclopropanecarboxamide]: the IC50 in assay [1] was greater than 0.5 µM. Also, on TYK2 JH2, the Kd was no more than 0.1 µM.
Take `CNc1ncc(/C=C/c2ccc(OCCC#N)cc2)c2cc(NC(=O)C3CC3)ncc12` [Example 794, (E)-N-(5-(4-(2-cyanoethoxy)styryl)-8-(methylamino)-2,7-naphthyridin-3-yl)cyclopropanecarboxamide]: the IC50 in assay [1] is no more than 0.5 µM. The Kd on TYK2 JH2 was no more than 0.1 µM.
The corresponding values for `CNc1ncc(/C=C/c2ccc(O)cc2)c2cc(Nc3ccccn3)ncc12` [Example 795, (E)-4-(2-(1-(methylamino)-6-(pyridin-2-ylamino)-2,7-naphthyridin-4-yl)vinyl)phenol] are no more than 0.5 µM and no more than 0.1 µM.
The corresponding values for `CNc1ncc(-c2cc3ccc(N4CCOCC4)cn3n2)c2cc(NC(=O)C3CC3)ncc12` [Example 796, N-(8-(methylamino)-5-(6-morpholinopyrazolo[1,5-a]pyridin-2-yl)-2,7-naphthyridin-3-yl)cyclopropanecarboxamide] are no more than 0.5 µM and no more than 0.1 µM.
The corresponding values for `CNc1ncc(-c2cc3ccc(N4CCO[C@@H](C)C4)cn3n2)c2cc(NC(=O)[C@H]3C[C@H]3C)ncc12` [Example 798, (1S,2R)-2-methyl-N-(8-(methylamino)-5-(6-((S)-2-methylmorpholino)pyrazolo[1,5-a]pyridin-2-yl)-2,7-naphthyridin-3-yl)cyclopropane-1-carboxamide] are no more than 0.5 µM and no more than 0.1 µM.
Consider `[2H]C([2H])([2H])Nc1ncc(/C=C/c2ccc(OCCC#N)cc2)c2cc(NC(=O)[C@H]3C[C@H]3C)ncc12` [Example 799, (1S,2R)—N-(5-((E)-4-(2-cyanoethoxy)styryl)-8-((methyl-d3)amino)-2,7-naphthyridin-3-yl)-2-methylcyclopropane-1-carboxamide], for which the IC50 in assay [1] was no more than 0.5 µM. In addition, the Kd on TYK2 JH2 is no more than 0.1 µM.
`CNc1nc(CO)c(C#Cc2ccc(OC)cn2)c2cc(NC(=O)C3CC3)ncc12` [Example 800, N-(6-(hydroxymethyl)-5-((5-methoxypyridin-2-yl)ethynyl)-8-(methylamino)-2,7-naphthyridin-3-yl)cyclopropanecarboxamide]: the IC50 in assay [1] was no more than 0.5 µM. Besides, on TYK2 JH2, the Kd was no more than 0.1 µM.
The corresponding values for `CNc1ncc(C#Cc2ccc3oc(C)nc3c2)c2cc(NC(=O)C3CC3)ncc12` [Example 801, N-(8-(methylamino)-5-((2-methylbenzo[d]oxazol-5-yl)ethynyl)-2,7-naphthyridin-3-yl)cyclopropanecarboxamide] are no more than 0.5 µM and no more than 0.1 µM.
The corresponding values for `CNc1ncc(C#Cc2ccnn2C)c2cc(NC(=O)C3CC3)ncc12` [Example 804, N-(5-((1-methyl-1H-pyrazol-5-yl)ethynyl)-8-(methylamino)-2,7-naphthyridin-3-yl)cyclopropanecarboxamide] are no more than 0.5 µM and no more than 0.1 µM.
The corresponding values for `CCn1ncc(C#Cc2cnc(NC)c3cnc(NC(=O)C4CC4)cc23)n1` [Example 805, N-(5-((2-ethyl-2H-1,2,3-triazol-4-yl)ethynyl)-8-(methylamino)-2,7-naphthyridin-3-yl)cyclopropanecarboxamide] are no more than 0.5 µM and no more than 0.1 µM.
Consider `CNc1ncc(C#Cc2ccc(-n3cccn3)cc2)c2cc(NC(=O)C3CC3)ncc12` [Example 806, N-(5-((4-(1H-pyrazol-1-yl)phenyl)ethynyl)-8-(methylamino)-2,7-naphthyridin-3-yl)cyclopropanecarboxamide], for which the IC50 in assay [1] is no more than 0.5 µM. In addition, the Kd at TYK2 JH2 is no more than 0.1 µM.
The corresponding values for `CNc1ncc(C#Cc2ccc3nc4n(c3c2)CCCC4)c2cc(NC(=O)C3CC3)ncc12` [Example 807, N-(8-(methylamino)-5-((1,2,3,4-tetrahydrobenzo[4,5]imidazo[1,2-a]pyridin-8-yl)ethynyl)-2,7-naphthyridin-3-yl)cyclopropanecarboxamide] are no more than 0.5 µM and no more than 0.1 µM.
With `CNc1ncc(C#Cc2ccc3nc4n(c3c2)CCC=C4)c2cc(NC(=O)C3CC3)ncc12` [Example 808, N-(5-((1,2-dihydrobenzo[4,5]imidazo[1,2-a]pyridin-8-yl)ethynyl)-8-(methylamino)-2,7-naphthyridin-3-yl)cyclopropanecarboxamide], the IC50 in assay [1] was no more than 0.5 µM. The Kd at TYK2 JH2 is no more than 0.1 µM.
Regarding `CNc1ncc(C#Cc2ccc3nc4n(c3c2)CCC(F)=C4)c2cc(NC(=O)C3CC3)ncc12` [Example 809, N-(5-((3-fluoro-1,2-dihydrobenzo[4,5]imidazo[1,2-a]pyridin-8-yl)ethynyl)-8-(methylamino)-2,7-naphthyridin-3-yl)cyclopropanecarboxamide], the IC50 in assay [1] is no more than 0.5 µM. For the same compound, at TYK2 JH2, the Kd was no more than 0.1 µM.
The corresponding values for `CCc1nc2ccc(C#Cc3cnc(NC)c4cnc(NC(=O)C5CC5)cc34)cc2n1C` [Example 811, N-(5-((2-ethyl-1-methyl-1H-benzo[d]imidazol-6-yl)ethynyl)-8-(methylamino)-2,7-naphthyridin-3-yl)cyclopropanecarboxamide] are no more than 0.5 µM and no more than 0.1 µM.
Take `[2H]C1([2H])Oc2ccc(C#Cc3cnc(NC)c4cnc(NC(=O)C5CC5)cc34)cc2O1` [Example 812, N-(5-((benzo[d][1,3]dioxol-5-yl-2,2-d2)ethynyl)-8-(methylamino)-2,7-naphthyridin-3-yl)cyclopropanecarboxamide]: the IC50 in assay [1] is no more than 0.5 µM. Also, on TYK2 JH2, the Kd is no more than 0.1 µM.
